Data reported in US20250205191A1, “R(-)-MDMA COMPOSITIONS AND METHODS OF TREATMENT” (EmpathBio, Inc., priority 2023, published 2025).

Tests used:
[1] = molecular target: T1, human 5-HT2C (non-edited) receptor (Homo sapiens, UniProt P28335); assay: 5-HT2C (non-edited) agonism, inositol monophosphate accumulation (HTRF), CHO-K1 recombinant cells; assay type: cell-based
T1 construct: expressed in transfected cells; host or cells: CHO-K1
T1 sequence (P28335 33-458): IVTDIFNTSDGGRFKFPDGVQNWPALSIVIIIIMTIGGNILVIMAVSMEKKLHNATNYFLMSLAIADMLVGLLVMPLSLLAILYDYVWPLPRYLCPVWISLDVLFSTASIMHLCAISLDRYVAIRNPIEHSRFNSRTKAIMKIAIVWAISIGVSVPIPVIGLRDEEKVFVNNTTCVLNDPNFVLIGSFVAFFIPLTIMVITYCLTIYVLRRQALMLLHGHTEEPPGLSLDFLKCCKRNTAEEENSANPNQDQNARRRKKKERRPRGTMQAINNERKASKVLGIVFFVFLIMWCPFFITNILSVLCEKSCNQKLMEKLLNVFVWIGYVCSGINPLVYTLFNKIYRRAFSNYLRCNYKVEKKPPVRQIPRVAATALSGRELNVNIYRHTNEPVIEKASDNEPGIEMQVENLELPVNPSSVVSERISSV

[2] = tested on: male C57BL/6J mice; assay: Mouse extinction of fear learning assay; assay type: in vivo; details: vs vehicle
Procedure: Extinction of fear learning in rodents is a useful assay to understand if compounds have the potential to enhance learning processes that may be involved in recovery from SAD and other stress and anxiety related disorders, due to its resemblance to exposure-based therapy in humans. […] Freezing behavior, an indicator of the fear response, was measured in the presence of the CS during the extinction training session (Day 1) and the day after (Day 2, Extinction Testing, in the absence of test article). Locomotor activity was measured during the initial 2-minute habituation period, prior to the presentation of the CS, on Days 1 and 2.

[3] = tested on: healthy volunteers; assay: Phase 1 clinical study, safety and tolerability; assay type: in vivo, human
Excerpt: The primary endpoints assessed the safety, tolerability, pharmacokinetics (PK), and exploratory pharmacodynamic (PD) observations. Treatment-related adverse events (AEs) were in line with expectations (e.g., nausea at 29.2%, headache at 16.7%) and generally dose dependent.

[4] = tested on: male C57BL/6J mice; assay: Mouse head twitch response (HTR); assay type: in vivo; details: 3 mg/kg IP, 30 min, vs vehicle control group
Procedure: Mouse Head Twitch (HTR) is a side-to-side rotational head movement in rodents that is widely employed as a behavioral measure of 5-HT2A receptor activation (Halberstadt and Geyer 2013). […] Animals with head mounted magnets were dosed intraperitoneally and immediately tested for HTR for 30 min using an automated magnetometer detection system (Halberstadt and Geyer 2013).

[5] = Phase 1 clinical study, urine pharmacokinetics (urinalysis); assay type: in vivo, human
[6] = molecular target: T2, human 5-HT2A receptor (Homo sapiens, UniProt P28223); assay: 5-HT2A agonism, inositol monophosphate accumulation (HTRF), CHO-K1 recombinant cells; assay type: cell-based
T2 construct: expressed in transfected cells; host or cells: CHO-K1

[7] = tested on: healthy volunteers; assay: Phase 1 Emotional Breakthrough Inventory (EBI); assay type: in vivo, human
Excerpt: Self-reported Emotional Breakthrough Inventory (EBI) include facing emotionally difficult feelings that are usually pushed aside; experiencing resolution of a personal conflict or trauma; ability to explore challenging emotions and memories; having an emotional breakthrough; achieving a sense of closure on an emotional problem; and achieving emotional release followed by sense of relief. Emotional breakthrough is an important and distinct component of the acute psychedelic experience that appears to be a key mediator (state predictor) of subsequent longer-term psychological changes in psychiatric populations. (Carhartt-Harris, et al., Trial of Psilocybin versus Escitalopram for Depression, N Engl J Med 2021; 384:1402-1411).

[8] = single oral 75-225 mg, healthy participants
[9] = urine analyte after EMP-01 125 mg, Day 9
[10] = urine analyte after single oral 75 mg R(−)-MDMA, Day 1
[11] = urine analyte after single oral 125 mg R(−)-MDMA, Day 1
[12] = urine analyte after single oral 175 mg R(−)-MDMA, Day 1
[13] = urine analyte after single oral 225 mg R(−)-MDMA, Day 1

T2 sequence (P28223 whole entry): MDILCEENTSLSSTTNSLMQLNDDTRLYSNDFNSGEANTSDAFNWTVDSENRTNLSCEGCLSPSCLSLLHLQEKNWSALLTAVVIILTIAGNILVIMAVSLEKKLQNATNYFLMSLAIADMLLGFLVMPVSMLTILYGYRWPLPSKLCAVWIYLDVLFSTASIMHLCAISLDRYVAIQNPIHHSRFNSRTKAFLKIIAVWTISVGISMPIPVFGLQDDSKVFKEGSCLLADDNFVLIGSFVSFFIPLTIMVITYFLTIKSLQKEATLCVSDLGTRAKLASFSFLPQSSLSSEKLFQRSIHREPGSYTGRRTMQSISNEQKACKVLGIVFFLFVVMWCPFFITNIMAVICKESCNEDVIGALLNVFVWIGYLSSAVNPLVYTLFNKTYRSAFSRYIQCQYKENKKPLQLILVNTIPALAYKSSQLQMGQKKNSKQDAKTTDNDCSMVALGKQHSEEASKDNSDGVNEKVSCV

CN[C@H](C)Cc1ccc2c(c1)OCO2 [R(−)-MDMA, R(−)-3,4-methylenedioxymethamphetamine]
agonism in words ([1]; 5-HT2C (non-edited) receptors): high potency full agonism | Efficacy (% of a-Me-5-HT response) ([1]; 5-HT2C (non-edited), relative to α-Me-5-HT at its EC100): 97.9% | freezing behavior ([2]; 10 mg/kg IP once): significantly reduced freezing behavior on Day 2 only | locomotor activity ([2]; 10 mg/kg IP once): significantly increased activity on Day 1 only | freezing behavior ([2]; 17 mg/kg IP once): significant reductions of freezing behavior on Days 1 and 2 | locomotor activity ([2]; 17 mg/kg IP once): significantly increased activity on Day 1 only | freezing behavior ([2]; 30 mg/kg IP once): significant reductions of freezing behavior on Days 1 and 2 | locomotor activity (activity counts) ([2]; 30 mg/kg IP once): significant increases in activity counts on Days 1 and 2 | bruxism ([3]; highest dose (225 mg)): observed in a single subject | peak body temperatures ([3]; single oral 75-225 mg): within the normal range | serious or severe AEs ([3]; single oral 75-225 mg): no serious or severe AEs were observed | study discontinuations ([3]; single oral 75-225 mg): no study discontinuations | treatment-related adverse event: headache [3, 8]: 16.7% | treatment-related adverse event: nausea [3, 8]: 29.2% | blood pressure and heart rate ([3]; single oral 75-225 mg, limited dose dependency): Non-clinically significant increases | head twitch response (HTR) [4]: significantly increased | detection in urine ([5]; 0-4 hours postdose): detected in urine in all participants by the first collection interval | mean cumulative amount excreted in urine (CAe), trend ([5]; across dose groups): dose-related increase | mean renal clearance (CLr), trend ([5]; across dose groups): approximately similar across all dose groups | mean urine concentration over collection intervals ([5]; all intervals to 30 hours): highest in the 12-24 hour collection interval | Ae12-24, amount excreted at the 12-24 hour collection interval [5, 9]: 18.5655 (12.7511) mg | CAe, cumulative amount of drug excreted [5, 9]: 40.5567 (15.5851) mg | CFe, cumulative fraction of drug excreted [5, 9]: 32.4453 (12.4681) % | CLr, renal clearance rate [5, 9]: 5.2324 (1.8093) L/h | Fe12-24, fraction of drug excreted at the 12-24 hour collection interval [5, 9]: 14.8524 (10.2009) % | Ae12-24, amount excreted at the 12-24 hour collection interval [5, 10]: 7.6917 (3.1509) mg | CAe, cumulative amount of drug excreted [5, 10]: 20.0733 (9.7605) mg | CFe, cumulative fraction of drug excreted [5, 10]: 26.7643 (13.0140) % | CLr, renal clearance rate [5, 10]: 4.9966 (1.2255) L/h | Fe12-24, fraction of drug excreted at the 12-24 hour collection interval [5, 10]: 10.2556 (4.2012) % | Ae12-24, amount excreted at the 12-24 hour collection interval [5, 11]: 14.5039 (5.6733) mg | CAe, cumulative amount of drug excreted [5, 11]: 28.2063 (7.8540) mg | CFe, cumulative fraction of drug excreted [5, 11]: 22.5650 (6.2832) % | CLr, renal clearance rate [5, 11]: 3.9900 (1.0288) L/h | Fe12-24, fraction of drug excreted at the 12-24 hour collection interval [5, 11]: 11.6031 (4.5387) % | Ae12-24, amount excreted at the 12-24 hour collection interval [5, 12]: 20.3702 (13.5536) mg | CAe, cumulative amount of drug excreted [5, 12]: 59.6271 (34.2201) mg | CFe, cumulative fraction of drug excreted [5, 12]: 34.0726 (19.5543) % | CLr, renal clearance rate [5, 12]: 5.9108 (2.5782) L/h | Fe12-24, fraction of drug excreted at the 12-24 hour collection interval [5, 12]: 11.6401 (7.7449) % | Ae12-24, amount excreted at the 12-24 hour collection interval [5, 13]: 36.8357 (16.8611) mg | CAe, cumulative amount of drug excreted [5, 13]: 76.0465 (15.1167) mg | CFe, cumulative fraction of drug excreted [5, 13]: 33.7985 (6.7186) % | CLr, renal clearance rate [5, 13]: 5.5411 (1.6424) L/h | Fe12-24, fraction of drug excreted at the 12-24 hour collection interval [5, 13]: 16.3714 (7.4938) % | agonism in words ([6]; 5-HT2A receptors): moderate potency partial agonism | EC50 ([6]; 5-HT2A, CHO-K1, IP accumulation): 3.34 µM | Efficacy (% of a-Me-5-HT response) ([6]; 5-HT2A, relative to α-Me-5-HT at its EC100): 69.3% | EBI, acute experience of emotional breakthroughs ([7]; 225 mg vs placebo): significantly higher | EBI, acute experience of emotional breakthroughs, dose response ([7]; 75-225 mg): dose-dependent increase
